Measurements published in PMC10614163 (ACS nano, 2023).

Legend:
[1] = for partitioning / effect on coacervates, in words: confocal microscopy, (R5R5, D10) coacervates
M^pro = M^pro (Severe acute respiratory syndrome coronavirus 2, UniProt P0DTD1); test: M^pro-mediated dye release from coacervates; assay type: biochemical, SARS-CoV-2; settings: (R5R5, D10) coacervates, 100 μM dye

SMILES | Encapsulation efficiency, EE% [1] [%] | Release efficiency, RE%, by M^pro (M^pro) [%] | partitioning / effect on coacervates, in words [1]
CN(C)c1ccc2nc3ccc(N)cc3[s+]c2c1.[Cl-] [Azure A, azure A] | 50 ± 1 | 95 ± 1 | 
CNc1ccc2nc3ccc(N)cc3[s+]c2c1 [Azure C, azure C] | 65 ± 2 | 98 ± 1 | 
O=C1OC2(c3ccc(O)cc3Oc3cc(O)ccc32)c2ccccc21 [Fluoresceine, fluoresceine] |  | 73 ± 7 | 
CC1(C)C(/C=C/C=C/C=C/C=C2\N(CCCCS(=O)(=O)[O-])c3ccc4ccccc4c3C2(C)C)=[N+](CCCCS(=O)(=O)[O-])c2ccc3ccccc3c21.[Na+] [ICG dye] |  |  | rapidly cause transformation of coacervates into solid aggregates
Cc1cc2nc3ccc(N(C)C)cc3nc2cc1N.Cl [Neutral red, neutral red] | 93 ± 1 | 99 ± 1 | 
CC/N=c1\cc2oc3cc(NCC)c(C)cc3c(-c3ccccc3C(=O)OCC)c-2cc1C [Rhodamine 6G, rhodamine 6G] | 64 ± 4 | 98 ± 1 | 
CCN(CC)c1ccc2c(-c3ccccc3C(=O)O)c3ccc(=[N+](CC)CC)cc-3oc2c1 [Rhodamine B, rhodamine B] | 56 ± 1 | 96 ± 2 | 
COc1cccc2c1C(=O)c1c(O)c3c(c(O)c1C2=O)C[C@@](O)(C(=O)CO)C[C@@H]3O[C@H]1C[C@H](N)[C@H](O)[C@H](C)O1 [doxorubicin] |  |  | rapidly cause transformation of coacervates into solid aggregates
